Laboratory results as given in ChEMBL document CHEMBL6121052, “Design of ROS-Triggered Sesquiterpene Lactone SC Prodrugs as TrxR1 Covalent Inhibitors for the Treatment of Non-Small Cell Lung Cancer” (J Med Chem, 2025).
Calls of active or inactive are those of the source. The calls are words filed in the database; no cut-off is given here.

Tests used:
[1] = test system: A549; experiment: Cytotoxicity against human A549 cells assessed as cell viability incubated for 48 hrs by MTT assay; format: functional, cell-based; conditions: A549, 48 h
[2] = test system: NCI-H460; experiment: Cytotoxicity against human NCI-H460 cells assessed as cell viability incubated for 48 hrs by MTT assay; format: functional, cell-based; conditions: for IC50: NCI-H460, 48 h

| SMILES | IC50 [1] [µM] | IC50 [2] [µM] | Activity [2] |
| --- | --- | --- | --- |
| C/C1=C\[C@@H](OC(=O)c2ccccc2)[C@H]2[C@H](CC3=C[C@H](C1)OC3=O)OC(=O)[C@@H]2CSCc1ccc(Cl)cc1 | > 25 | > 25 | – |
| C/C1=C\[C@@H](OC(=O)C2CC2)[C@H]2[C@H](CC3=C[C@H](C1)OC3=O)OC(=O)[C@@H]2CSCCCCCSC[C@H]1C(=O)O[C@H]2CC3=C[C@H](C/C(C)=C/[C@@H](OC(=O)C4CC4)[C@@H]21)OC3=O | > 25 | > 25 | – |
| CCCNC(=O)O[C@@H]1/C=C(\C)C[C@H]2C=C(C[C@@H]3OC(=O)[C@H](CSc4ccc(F)cc4)[C@H]31)C(=O)O2 | 10.5 | – | – |
| C/C1=C\[C@@H](OC(=O)C2CC2)[C@H]2[C@H](CC3=C[C@H](C1)OC3=O)OC(=O)[C@@H]2CSC(=S)N1CCOCC1 | 0.83 | > 25 | – |
| C/C1=C\[C@@H](OC(=O)c2ccccc2)[C@H]2[C@H](CC3=C[C@H](C1)OC3=O)OC(=O)[C@@H]2CSc1ccc(Cl)cc1 | 4.14 | 20.6 | – |
| C/C1=C\[C@@H](O)[C@H]2[C@H](CC3=C[C@H](C1)OC3=O)OC(=O)[C@@H]2CSc1cccc(Br)c1 | > 25 | > 25 | – |
| C/C1=C\[C@@H](O)[C@H]2[C@H](CC3=C[C@H](C1)OC3=O)OC(=O)[C@@H]2CSc1ccc(Cl)cc1 | > 25 | > 25 | – |
| C/C1=C\[C@@H](OC(=O)/C=C/c2ccccc2)[C@H]2[C@H](CC3=C[C@H](C1)OC3=O)OC(=O)[C@@H]2CSC1CCCCC1 | > 25 | > 25 | – |
| C/C1=C\[C@@H](OC(=O)c2ccccc2)[C@H]2[C@H](CC3=C[C@H](C1)OC3=O)OC(=O)[C@@H]2CSc1ccc(Br)cc1 | 8.85 | > 25 | – |
| C/C1=C\[C@@H](OC(=O)/C=C/c2ccccc2)[C@H]2[C@H](CC3=C[C@H](C1)OC3=O)OC(=O)[C@@H]2CSc1nc2ccccc2s1 | > 25 | > 25 | – |
| C/C1=C\[C@@H](OC(=O)C2CC2)[C@H]2[C@H](CC3=C[C@H](C1)OC3=O)OC(=O)[C@@H]2CSCCCCCCCCSC[C@H]1C(=O)O[C@H]2CC3=C[C@H](C/C(C)=C/[C@@H](OC(=O)C4CC4)[C@@H]21)OC3=O | > 25 | > 25 | – |
| C/C1=C\[C@@H](OC(=O)/C=C/c2ccccc2)[C@H]2[C@H](CC3=C[C@H](C1)OC3=O)OC(=O)[C@@H]2CSc1ccc(F)cc1 | 11.3 | > 25 | – |
| C/C1=C\[C@@H](OC(=O)/C=C/c2ccccc2)[C@H]2[C@H](CC3=C[C@H](C1)OC3=O)OC(=O)[C@@H]2CSCCCCCCCCSC[C@H]1C(=O)O[C@H]2CC3=C[C@H](C/C(C)=C/[C@@H](OC(=O)/C=C/c4ccccc4)[C@@H]21)OC3=O | > 25 | > 25 | – |
| C/C1=C\[C@@H](O)[C@H]2[C@H](CC3=C[C@H](C1)OC3=O)OC(=O)[C@@H]2CSCCCCCCCCSC[C@H]1C(=O)O[C@H]2CC3=C[C@H](C/C(C)=C/[C@@H](O)[C@@H]21)OC3=O | > 25 | > 25 | – |
| C/C1=C\[C@@H](OC(=O)c2ccccc2)[C@H]2[C@H](CC3=C[C@H](C1)OC3=O)OC(=O)[C@@H]2CSc1nc2ccccc2s1 | > 25 | > 25 | – |
| C/C1=C\[C@@H](O)[C@H]2[C@H](CC3=C[C@H](C1)OC3=O)OC(=O)[C@@H]2CSc1cccc(F)c1 | > 25 | > 25 | – |
| C/C1=C\[C@@H](O)[C@H]2[C@H](CC3=C[C@H](C1)OC3=O)OC(=O)[C@@H]2CSCCCCCCSC[C@H]1C(=O)O[C@H]2CC3=C[C@H](C/C(C)=C/[C@@H](O)[C@@H]21)OC3=O | 21.9 | > 25 | – |
| C/C1=C\[C@@H](OC(=O)NC2CC2)[C@H]2[C@H](CC3=C[C@H](C1)OC3=O)OC(=O)[C@@H]2CSc1ccc(F)cc1 | 15.9 | – | – |
| C/C1=C\[C@@H](OC(=O)/C=C/c2ccccc2)[C@H]2[C@H](CC3=C[C@H](C1)OC3=O)OC(=O)[C@@H]2CSc1cccc(F)c1 | 15.6 | > 25 | – |
| C/C1=C\[C@@H](OC(=O)c2ccccc2)[C@H]2[C@H](CC3=C[C@H](C1)OC3=O)OC(=O)[C@@H]2CSc1ccc(F)cc1 | 7.18 | > 25 | – |
| C/C1=C\[C@@H](OC(=O)OCc2cccs2)[C@H]2[C@H](CC3=C[C@H](C1)OC3=O)OC(=O)[C@@H]2CSC(=S)N(C)C | 2.56 | – | – |
| C/C1=C\[C@@H](O)[C@H]2[C@H](CC3=C[C@H](C1)OC3=O)OC(=O)[C@@H]2CSCCCCCSC[C@H]1C(=O)O[C@H]2CC3=C[C@H](C/C(C)=C/[C@@H](O)[C@@H]21)OC3=O | > 25 | > 25 | – |
| C/C1=C\[C@@H](OC(=O)N2CCCC2)[C@H]2[C@H](CC3=C[C@H](C1)OC3=O)OC(=O)[C@@H]2CSc1ccc(F)cc1 | 7.51 | – | – |
| CCCCCSC[C@H]1C(=O)O[C@H]2CC3=C[C@H](C/C(C)=C/[C@@H](OC(=O)c4ccccc4)[C@@H]21)OC3=O | > 25 | > 25 | – |

| SMILES | IC50 [1] [µM] | IC50 [2] [µM] | Activity [2] |
| --- | --- | --- | --- |
| C/C1=C\[C@@H](O)[C@H]2[C@H](CC3=C[C@H](C1)OC3=O)OC(=O)[C@@H]2CSc1ccc(SC[C@H]2C(=O)O[C@H]3CC4=C[C@H](C/C(C)=C/[C@@H](O)[C@@H]32)OC4=O)cc1 | > 25 | > 25 | – |
| C/C1=C\[C@@H](OC(=O)OCc2ccc(F)cc2)[C@H]2[C@H](CC3=C[C@H](C1)OC3=O)OC(=O)[C@@H]2CSc1ccc(F)cc1 | 7.29 | – | – |
| C/C1=C\[C@@H](OC(=O)/C=C/c2ccccc2)[C@H]2[C@H](CC3=C[C@H](C1)OC3=O)OC(=O)[C@@H]2CSCCCCCCSC[C@H]1C(=O)O[C@H]2CC3=C[C@H](C/C(C)=C/[C@@H](OC(=O)/C=C/c4ccccc4)[C@@H]21)OC3=O | > 25 | > 25 | – |
| C/C1=C\[C@@H](OC(=O)C2CC2)[C@H]2[C@H](CC3=C[C@H](C1)OC3=O)OC(=O)[C@@H]2CSC(=S)NCc1ccc(F)cc1 | 1.79 | 15.2 | – |
| C/C1=C\[C@@H](OC(=O)C2CC2)[C@H]2[C@H](CC3=C[C@H](C1)OC3=O)OC(=O)[C@@H]2CSc1cccc(F)c1 | 5.4 | 13.2 | – |
| C[C@@]12C[C@H]3C=C(C[C@@H]4OC(=O)[C@H](CSc5ccc(F)cc5)[C@H]4[C@H](OC(=O)C4CC4)[C@H]1O2)C(=O)O3 | – | – | inactive |
| C/C1=C\[C@@H](OC(=O)/C=C/c2ccccc2)[C@H]2[C@H](CC3=C[C@H](C1)OC3=O)OC(=O)[C@@H]2CSc1ccc(Cl)cc1 | 7.5 | > 25 | – |
| C/C1=C\[C@@H](O)[C@H]2[C@H](CC3=C[C@H](C1)OC3=O)OC(=O)[C@@H]2CSCCOCCOCCSC[C@H]1C(=O)O[C@H]2CC3=C[C@H](C/C(C)=C/[C@@H](O)[C@@H]21)OC3=O | > 25 | > 25 | – |
| C/C1=C\[C@@H](OC(=O)NCc2cccs2)[C@H]2[C@H](CC3=C[C@H](C1)OC3=O)OC(=O)[C@@H]2CSC(=S)N(C)C | 2.8 | – | – |
| C/C1=C\[C@@H](O)[C@H]2[C@H](CC3=C[C@H](C1)OC3=O)OC(=O)[C@@H]2CSCc1ccc(Cl)cc1 | > 25 | > 25 | – |
| C/C1=C\[C@@H](OC(=O)SC2CCCCC2)[C@H]2[C@H](CC3=C[C@H](C1)OC3=O)OC(=O)[C@@H]2CSC(=S)N(C)C | 2.01 | – | – |
| C/C1=C\[C@@H](OC(=O)C2CC2)[C@H]2[C@H](CC3=C[C@H](C1)OC3=O)OC(=O)[C@@H]2CSCCCCCCCCCCSC[C@H]1C(=O)O[C@H]2CC3=C[C@H](C/C(C)=C/[C@@H](OC(=O)C4CC4)[C@@H]21)OC3=O | > 25 | > 25 | – |
| C/C1=C\[C@@H](OC(=O)/C=C/c2ccccc2)[C@H]2[C@H](CC3=C[C@H](C1)OC3=O)OC(=O)[C@@H]2CSCCCCCSC[C@H]1C(=O)O[C@H]2CC3=C[C@H](C/C(C)=C/[C@@H](OC(=O)/C=C/c4ccccc4)[C@@H]21)OC3=O | > 25 | > 25 | – |
| C#CCNC(=O)O[C@@H]1/C=C(\C)C[C@H]2C=C(C[C@@H]3OC(=O)[C@H](CSc4ccc(F)cc4)[C@H]31)C(=O)O2 | 22.1 | – | – |
| CCCCCSC(=O)O[C@@H]1/C=C(\C)C[C@H]2C=C(C[C@@H]3OC(=O)[C@H](CSc4ccc(F)cc4)[C@H]31)C(=O)O2 | 10.7 | – | – |
| C/C1=C\[C@@H](OC(=O)OCc2cccs2)[C@H]2[C@H](CC3=C[C@H](C1)OC3=O)OC(=O)[C@@H]2CSc1ccc(F)cc1 | 22.6 | – | – |
| C/C1=C\[C@@H](OC(=O)SCC(C)C)[C@H]2[C@H](CC3=C[C@H](C1)OC3=O)OC(=O)[C@@H]2CSC(=S)N(C)C | 1.37 | – | – |
| C/C1=C\[C@@H](OC(=O)NCc2cccs2)[C@H]2[C@H](CC3=C[C@H](C1)OC3=O)OC(=O)[C@@H]2CSc1ccc(F)cc1 | 5.51 | – | – |
| C#CCNC(=O)O[C@@H]1/C=C(\C)C[C@H]2C=C(C[C@@H]3OC(=O)[C@H](CSC(=S)N(C)C)[C@H]31)C(=O)O2 | 1.76 | – | – |
| C/C1=C\[C@@H](OC(=O)SC2CCCCC2)[C@H]2[C@H](CC3=C[C@H](C1)OC3=O)OC(=O)[C@@H]2CSc1ccc(F)cc1 | 3.94 | – | – |
| C/C1=C\[C@@H](OC(=O)NC2CC2)[C@H]2[C@H](CC3=C[C@H](C1)OC3=O)OC(=O)[C@@H]2CSC(=S)N(C)C | 2.08 | – | – |
| C/C1=C\[C@@H](OC(=O)OC2CC2)[C@H]2[C@H](CC3=C[C@H](C1)OC3=O)OC(=O)[C@@H]2CSC(=S)N(C)C | 1.29 | – | – |
| C/C1=C\[C@@H](OC(=O)NCc2cccnc2)[C@H]2[C@H](CC3=C[C@H](C1)OC3=O)OC(=O)[C@@H]2CSc1ccc(F)cc1 | 19.3 | – | – |
